Test results from patent US7947669B2, “Agent for improving insulin resistance” (Morinaga Milk Industry Co., Ltd., priority 2005, dated 2011).

What was measured:
Assay type in all cases: in vivo
[1] = tested on: AKR mice in which insulin resistance is induced by feeding with a high-fat diet; experiment: Level of free fatty acid in serum of high-fat diet AKR mice; conditions: for Test Sample/Negative sample (free fatty acid): serum free fatty acid relative to negative sample, 60th day, 25 μg/kg oral once a day; for Free fatty acid: serum, fasting, 60th day of oral administration 25 μg/kg of body weight once a day, AKR mice on high-fat diet
Procedure: Each of 9,19-cyclolanostan-3-ol and 24-methylene-9,19-cyclolanostan-3-ol produced in Preparation Example 3 was dissolved in DMSO, and each concentration was adjusted to 1 μg/ml with distilled water to thereby prepare Test Samples 1 and 2.
These mice were divided into groups, each consisting of 8 mice.

[2] = tested on: MCP-1; experiment: Production quantity of MCP-1 of adipose tissues from treated high-fat diet AKR mice (ELISA); conditions: 60th day, 25 μg/kg oral once a day; for inhibitory effect on the production of MCP-1 compared with negative sample: adipose tissue, Tukey-Kramer's test; for MCP-1: culture supernatant of epididymal fat tissue after 1 hour culture
Procedure: (§1) This example was performed in order to evaluate an effect of the agent for improving insulin resistance of the present invention on production quantities of TNF-α and MCP-1 in each cell of adipose tissue by using AKR mice in which insulin resistance is induced by feeding with a high-fat diet.
(§2) In Example 2, the same Test Samples 1, 2 and the negative sample as those prepared in Example 1 were used.
(§3) These mice were divided into groups, each consisting of 8 mice. […] After 1 hour of the culture, culture supernatants were collected, and concentrations of TNF-α and MCP-1 in the culture supernatants were measured by ELISA method (Biosource).

[3] = tested on: TNF-α; experiment: Production quantity of TNF-α of adipose tissues from treated high-fat diet AKR mice (ELISA); conditions: 60th day, 25 μg/kg oral once a day; for inhibitory effect on the production of TNF-α compared with negative sample: adipose tissue, Tukey-Kramer's test; for TNF-α: culture supernatant of epididymal fat tissue after 1 hour culture
Procedure: as §1, §2, §3

[4] = tested on: AKR mice in which insulin resistance is induced by feeding with a high-fat diet; experiment: Insulin tolerance test in high-fat diet AKR mice; conditions: 45th day, 25 μg/kg oral once a day, 4 h fast, human insulin 0.75 U/Kg i.p., up to 60 minutes (FIG. 1)
Procedure: This example was performed in order to evaluate an enhancing effect of the agent for improving insulin resistance of the present invention on insulin sensitivity by performing an insulin tolerance test using AKR mice in which insulin resistance is induced by feeding with a high-fat diet.
In Example 3, the same Test Samples 1, 2 and the negative sample as those prepared in Examples 1 and 2 were used.
These mice were divided into groups, each consisting of 8 mice. […] In the present example, the insulin tolerance test was performed in such a manner that: the mice were fasted for 4 hours, and were then intraperitoneally administered with 0.75 U/Kg of body weight of a human insulin (Eli Lily and Company); and changes with time in blood glucose level were measured from the initiation of the administration of the insulin to after 60 minutes later.

Row | SMILES | Test Sample/Negative sample (free fatty acid) [1] [%] | Free fatty acid [1] [mEq/l] | inhibitory effect on the production of MCP-1 compared with negative sample [2] | MCP-1 [2] [pg/mL] | inhibitory effect on the production of TNF-α compared with negative sample [3] | TNF-α [3] [pg/mL] | change in blood glucose level after insulin administration [4]
1 | CC(C)CCCC(C)C1CCC2(C)C3CCC4C(C)(C)C(O)CCC45CC35CCC12C (centres unmarked) [Test Sample 1, 9,19-cyclolanostan-3-ol] | 81.1 | 1.20 ± 0.38 | significant inhibitory effects | 89.83 ± 6.16 | significant inhibitory effects | 29.80 ± 2.58 | rapid decrease in blood glucose levels
2 | C=C(CCC(C)C1CCC2(C)C3CCC4C(C)(C)C(O)CCC45CC35CCC12C)C(C)C (centres unmarked) [Test Sample 2, 24-methylene-9,19-cyclolanostan-3-ol] | 81.1 | 1.20 ± 0.25 | significant inhibitory effects | 99.32 ± 7.80 | significant inhibitory effects | 33.59 ± 0.59 | rapid decrease in blood glucose levels
